Measured values reported in ChEMBL document CHEMBL1153943, “Exploring the pharmacokinetic properties of phosphorus-containing selective HDAC 1 and 2 inhibitors (SHI-1:2)” (Bioorg Med Chem Lett, 2009).
pIC50: −log10 of the molar value. Calls of active or inactive are those of the source. The rule behind the calls is not given here.

Assays:
Histone deacetylase 1 = Histone deacetylase 1 (Homo sapiens, UniProt Q13547); experiment: Inhibition of HDAC1
HCT-116 [1] = experiment: Antiproliferative activity against human HCT116 cells after 72 hrs; format: functional; conditions: HCT-116, 72 h
[2] = Cmax in mouse at 150 mg/kg, po; format: ADME, organism-based; parameters: dose 150 mg/kg, route oral; conditions: in vivo
[3] = AUC in mouse at 150 mg/kg, po; format: ADME, organism-based, Plasma; parameters: dose 150 mg/kg, route oral; conditions: whole blood
Histone deacetylase 3 = Histone deacetylase 3 (Homo sapiens, UniProt O15379); experiment: Inhibition of HDAC3
Histone deacetylase 2 = Histone deacetylase 2 (Homo sapiens, UniProt Q92769); experiment: Inhibition of HDAC2
Mus musculus [4] = experiment: Effect on histone H2B acetylation in human HCT116 cells xenografted in CD1 mouse assessed as change in ratio of acetylated to deacetylated histone level at 150 mg/kg, po QD for 3 days measured after 8 hrs; format: functional, organism-based; parameters: dose 150 mg/kg; conditions: HCT-116
Histone deacetylase 4 = Histone deacetylase 4 (Homo sapiens, UniProt P56524); experiment: Inhibition of HDAC4
Histone deacetylase 5 = Histone deacetylase 5 (Homo sapiens, UniProt Q9UQL6); experiment: Inhibition of HDAC5
[5] = target: T1, Protein deacetylase HDAC6 (Homo sapiens, UniProt Q9UBN7); experiment: Inhibition of HDAC6
T1 sequence (Q9UBN7 whole entry): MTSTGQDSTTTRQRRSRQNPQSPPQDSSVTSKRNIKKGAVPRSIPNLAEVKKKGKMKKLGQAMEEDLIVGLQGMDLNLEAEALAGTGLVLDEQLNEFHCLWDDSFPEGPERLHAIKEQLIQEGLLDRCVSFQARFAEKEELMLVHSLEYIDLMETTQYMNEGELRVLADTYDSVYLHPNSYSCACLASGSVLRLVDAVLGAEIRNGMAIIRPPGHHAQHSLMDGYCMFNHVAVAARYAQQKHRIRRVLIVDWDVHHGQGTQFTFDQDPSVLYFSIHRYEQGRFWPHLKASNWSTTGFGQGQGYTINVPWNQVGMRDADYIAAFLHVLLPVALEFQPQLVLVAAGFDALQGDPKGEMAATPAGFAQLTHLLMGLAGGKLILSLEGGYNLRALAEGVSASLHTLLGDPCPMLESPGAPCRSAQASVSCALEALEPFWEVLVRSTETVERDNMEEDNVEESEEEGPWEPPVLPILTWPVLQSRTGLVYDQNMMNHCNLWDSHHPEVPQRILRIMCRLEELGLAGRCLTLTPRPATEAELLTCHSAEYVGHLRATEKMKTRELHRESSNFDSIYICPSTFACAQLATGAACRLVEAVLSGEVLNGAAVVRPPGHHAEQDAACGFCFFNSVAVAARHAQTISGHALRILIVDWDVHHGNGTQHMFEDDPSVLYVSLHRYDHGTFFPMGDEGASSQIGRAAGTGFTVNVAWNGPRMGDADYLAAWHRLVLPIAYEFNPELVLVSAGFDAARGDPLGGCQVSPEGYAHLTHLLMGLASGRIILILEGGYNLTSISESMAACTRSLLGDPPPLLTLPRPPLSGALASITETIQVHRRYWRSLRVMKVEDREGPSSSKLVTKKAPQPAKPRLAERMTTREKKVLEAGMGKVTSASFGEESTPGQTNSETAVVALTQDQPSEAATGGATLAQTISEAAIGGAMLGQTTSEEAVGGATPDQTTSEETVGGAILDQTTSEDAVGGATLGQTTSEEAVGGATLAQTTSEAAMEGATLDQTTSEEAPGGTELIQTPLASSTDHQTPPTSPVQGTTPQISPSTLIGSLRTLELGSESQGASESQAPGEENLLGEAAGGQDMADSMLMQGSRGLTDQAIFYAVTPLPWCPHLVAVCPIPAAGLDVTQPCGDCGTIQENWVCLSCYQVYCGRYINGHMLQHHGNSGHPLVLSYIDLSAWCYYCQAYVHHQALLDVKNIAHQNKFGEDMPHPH

Histone deacetylase 7 = target: T2, Histone deacetylase 7 (Homo sapiens, UniProt Q8WUI4); experiment: Inhibition of HDAC7
T2 sequence (Q8WUI4 whole entry): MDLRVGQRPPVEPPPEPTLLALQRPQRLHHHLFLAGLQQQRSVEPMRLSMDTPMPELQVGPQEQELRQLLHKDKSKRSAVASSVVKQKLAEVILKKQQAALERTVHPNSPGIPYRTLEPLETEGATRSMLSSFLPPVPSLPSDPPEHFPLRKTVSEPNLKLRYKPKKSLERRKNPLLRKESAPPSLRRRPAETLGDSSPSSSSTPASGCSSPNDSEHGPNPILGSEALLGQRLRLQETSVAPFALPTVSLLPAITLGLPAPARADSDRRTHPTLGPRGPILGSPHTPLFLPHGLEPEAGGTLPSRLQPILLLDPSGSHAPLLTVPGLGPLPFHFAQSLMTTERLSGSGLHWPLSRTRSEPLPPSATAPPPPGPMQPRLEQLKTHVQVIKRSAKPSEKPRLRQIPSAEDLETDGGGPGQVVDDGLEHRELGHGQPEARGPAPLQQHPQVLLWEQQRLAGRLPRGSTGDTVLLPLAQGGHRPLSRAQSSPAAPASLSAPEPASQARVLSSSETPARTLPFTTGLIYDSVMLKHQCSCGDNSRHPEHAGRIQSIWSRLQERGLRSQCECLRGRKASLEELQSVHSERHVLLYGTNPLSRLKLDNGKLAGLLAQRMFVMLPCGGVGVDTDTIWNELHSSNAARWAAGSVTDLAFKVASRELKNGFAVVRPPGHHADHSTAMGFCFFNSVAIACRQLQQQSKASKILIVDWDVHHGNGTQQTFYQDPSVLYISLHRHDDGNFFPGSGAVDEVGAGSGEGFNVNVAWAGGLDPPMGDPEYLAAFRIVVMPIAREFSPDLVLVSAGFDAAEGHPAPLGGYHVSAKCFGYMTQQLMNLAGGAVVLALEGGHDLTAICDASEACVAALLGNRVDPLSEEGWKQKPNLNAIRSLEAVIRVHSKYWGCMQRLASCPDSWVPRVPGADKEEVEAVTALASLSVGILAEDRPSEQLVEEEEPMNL

Histone deacetylase 8 = target: T3, Histone deacetylase 8 (Homo sapiens, UniProt Q9BY41); experiment: Inhibition of HDAC8
T3 sequence (Q9BY41 whole entry): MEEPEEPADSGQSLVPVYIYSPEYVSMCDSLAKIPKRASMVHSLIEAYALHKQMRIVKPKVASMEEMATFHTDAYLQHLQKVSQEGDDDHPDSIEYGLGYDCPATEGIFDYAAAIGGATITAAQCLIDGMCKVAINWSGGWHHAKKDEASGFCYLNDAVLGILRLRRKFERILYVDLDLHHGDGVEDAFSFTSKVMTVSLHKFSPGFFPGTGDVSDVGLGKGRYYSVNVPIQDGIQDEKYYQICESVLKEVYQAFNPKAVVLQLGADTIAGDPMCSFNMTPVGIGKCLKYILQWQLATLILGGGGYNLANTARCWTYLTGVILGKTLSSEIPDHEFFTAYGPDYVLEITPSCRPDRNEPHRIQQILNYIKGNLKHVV

Histone deacetylase 11 = target: T4, Histone deacetylase 11 (Homo sapiens, UniProt Q96DB2); experiment: Inhibition of HDAC11
T4 sequence (Q96DB2 whole entry): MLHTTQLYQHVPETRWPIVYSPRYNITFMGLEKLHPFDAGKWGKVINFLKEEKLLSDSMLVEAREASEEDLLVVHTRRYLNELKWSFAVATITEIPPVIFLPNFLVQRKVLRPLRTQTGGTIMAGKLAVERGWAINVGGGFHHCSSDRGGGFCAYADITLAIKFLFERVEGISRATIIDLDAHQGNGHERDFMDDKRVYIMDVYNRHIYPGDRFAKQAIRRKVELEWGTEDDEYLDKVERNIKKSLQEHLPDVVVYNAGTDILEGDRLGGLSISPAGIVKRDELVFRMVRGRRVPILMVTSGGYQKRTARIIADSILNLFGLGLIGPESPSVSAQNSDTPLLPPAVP

HCT-116 [6] = experiment: Antitumor activity against human HCT116 cells xenografted in po dosed mouse assessed as reduction in tumor growth dosed daily for 21 days; format: functional, organism-based
Mus musculus [7] = experiment: Toxicity in human HCT116 cells xenografted CD1 mouse at 150 to 300 mg/kg, po after 21 days; format: organism-based, HCT-116; parameters: dose 150-300 mg/kg, route oral; conditions: in vivo, 504 h

Sequence of Histone deacetylase 1 (Q13547 whole entry): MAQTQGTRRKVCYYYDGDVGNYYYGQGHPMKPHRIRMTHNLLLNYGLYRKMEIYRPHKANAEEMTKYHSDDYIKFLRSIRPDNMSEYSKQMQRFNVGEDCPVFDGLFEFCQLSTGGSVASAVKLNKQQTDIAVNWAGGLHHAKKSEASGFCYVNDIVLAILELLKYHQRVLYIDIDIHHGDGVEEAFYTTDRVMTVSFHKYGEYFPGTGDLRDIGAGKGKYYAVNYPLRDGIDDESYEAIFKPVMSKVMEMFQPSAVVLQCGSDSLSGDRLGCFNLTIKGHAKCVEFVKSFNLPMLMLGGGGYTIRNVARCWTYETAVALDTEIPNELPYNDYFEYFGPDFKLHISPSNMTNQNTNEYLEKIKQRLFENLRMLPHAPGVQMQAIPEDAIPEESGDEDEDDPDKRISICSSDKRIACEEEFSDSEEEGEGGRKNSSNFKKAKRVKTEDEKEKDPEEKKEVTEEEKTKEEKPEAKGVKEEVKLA
Sequence of Histone deacetylase 2 (Q92769 whole entry): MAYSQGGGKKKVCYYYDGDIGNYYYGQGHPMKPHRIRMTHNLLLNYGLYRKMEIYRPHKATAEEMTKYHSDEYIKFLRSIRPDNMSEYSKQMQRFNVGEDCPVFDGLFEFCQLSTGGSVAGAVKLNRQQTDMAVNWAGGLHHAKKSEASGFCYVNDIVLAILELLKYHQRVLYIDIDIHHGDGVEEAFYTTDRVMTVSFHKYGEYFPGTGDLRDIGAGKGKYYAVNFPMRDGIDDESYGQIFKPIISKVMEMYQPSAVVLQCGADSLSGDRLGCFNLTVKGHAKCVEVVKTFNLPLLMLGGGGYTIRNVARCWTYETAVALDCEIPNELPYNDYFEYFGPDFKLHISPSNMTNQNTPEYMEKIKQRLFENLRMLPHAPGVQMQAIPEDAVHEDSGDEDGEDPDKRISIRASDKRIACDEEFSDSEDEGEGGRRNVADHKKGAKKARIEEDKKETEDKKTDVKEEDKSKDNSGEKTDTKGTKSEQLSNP
Sequence of Histone deacetylase 5 (Q9UQL6 whole entry): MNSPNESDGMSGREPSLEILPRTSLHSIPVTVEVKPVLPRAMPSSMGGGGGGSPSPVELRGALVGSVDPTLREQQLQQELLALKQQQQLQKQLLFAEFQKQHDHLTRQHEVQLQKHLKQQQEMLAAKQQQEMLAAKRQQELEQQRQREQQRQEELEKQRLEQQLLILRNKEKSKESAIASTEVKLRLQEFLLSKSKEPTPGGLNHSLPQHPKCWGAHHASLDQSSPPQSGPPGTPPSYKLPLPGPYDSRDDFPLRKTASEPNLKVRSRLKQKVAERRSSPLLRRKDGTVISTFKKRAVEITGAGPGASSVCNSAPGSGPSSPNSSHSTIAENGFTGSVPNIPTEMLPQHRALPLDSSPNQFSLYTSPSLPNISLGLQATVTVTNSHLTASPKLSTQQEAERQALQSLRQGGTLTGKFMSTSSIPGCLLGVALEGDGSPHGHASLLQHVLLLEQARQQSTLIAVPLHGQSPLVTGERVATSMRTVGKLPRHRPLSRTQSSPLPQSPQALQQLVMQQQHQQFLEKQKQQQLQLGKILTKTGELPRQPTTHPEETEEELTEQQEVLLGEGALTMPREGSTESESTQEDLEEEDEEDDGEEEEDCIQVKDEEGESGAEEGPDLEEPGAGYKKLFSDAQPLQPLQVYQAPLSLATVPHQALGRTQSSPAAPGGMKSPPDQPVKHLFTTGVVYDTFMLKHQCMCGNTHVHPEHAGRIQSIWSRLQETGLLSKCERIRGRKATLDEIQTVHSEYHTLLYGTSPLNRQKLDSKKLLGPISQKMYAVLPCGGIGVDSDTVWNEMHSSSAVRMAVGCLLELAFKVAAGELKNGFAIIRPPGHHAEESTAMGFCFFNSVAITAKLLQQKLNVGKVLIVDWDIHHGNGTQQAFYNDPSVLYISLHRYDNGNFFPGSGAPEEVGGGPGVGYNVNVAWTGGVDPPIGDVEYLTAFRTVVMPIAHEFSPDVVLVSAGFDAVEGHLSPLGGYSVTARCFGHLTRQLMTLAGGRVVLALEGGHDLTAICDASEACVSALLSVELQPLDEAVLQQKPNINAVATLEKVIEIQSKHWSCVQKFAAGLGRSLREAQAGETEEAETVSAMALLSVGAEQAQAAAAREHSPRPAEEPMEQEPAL
Sequence of Histone deacetylase 4 (P56524 whole entry): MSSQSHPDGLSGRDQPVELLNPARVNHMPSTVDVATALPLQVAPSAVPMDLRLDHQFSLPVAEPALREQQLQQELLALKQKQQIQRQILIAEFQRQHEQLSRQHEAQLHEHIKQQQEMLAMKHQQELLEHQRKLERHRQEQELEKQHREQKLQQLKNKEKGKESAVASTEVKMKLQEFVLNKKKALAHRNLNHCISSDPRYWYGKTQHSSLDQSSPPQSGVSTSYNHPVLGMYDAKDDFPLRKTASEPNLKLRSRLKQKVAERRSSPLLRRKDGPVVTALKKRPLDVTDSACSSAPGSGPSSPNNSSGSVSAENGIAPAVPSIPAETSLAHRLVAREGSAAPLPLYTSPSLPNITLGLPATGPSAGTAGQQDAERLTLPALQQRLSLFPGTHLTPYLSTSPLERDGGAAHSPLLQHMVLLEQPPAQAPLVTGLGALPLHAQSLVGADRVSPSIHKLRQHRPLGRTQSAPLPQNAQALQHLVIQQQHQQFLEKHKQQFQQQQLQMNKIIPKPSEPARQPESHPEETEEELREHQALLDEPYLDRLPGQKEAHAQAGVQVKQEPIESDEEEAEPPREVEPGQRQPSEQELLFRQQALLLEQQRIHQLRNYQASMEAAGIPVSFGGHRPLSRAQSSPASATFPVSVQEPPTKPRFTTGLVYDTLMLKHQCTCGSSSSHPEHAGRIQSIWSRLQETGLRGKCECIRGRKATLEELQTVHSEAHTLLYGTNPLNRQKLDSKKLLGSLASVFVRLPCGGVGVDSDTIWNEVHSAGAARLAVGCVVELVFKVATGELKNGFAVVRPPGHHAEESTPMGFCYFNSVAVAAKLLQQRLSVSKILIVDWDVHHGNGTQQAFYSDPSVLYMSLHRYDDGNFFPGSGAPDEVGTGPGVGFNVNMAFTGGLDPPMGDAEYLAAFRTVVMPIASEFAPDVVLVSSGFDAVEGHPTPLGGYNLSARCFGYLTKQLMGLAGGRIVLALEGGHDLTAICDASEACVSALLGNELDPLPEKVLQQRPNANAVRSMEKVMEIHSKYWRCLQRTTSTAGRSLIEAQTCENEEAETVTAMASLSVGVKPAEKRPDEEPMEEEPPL
Sequence of Histone deacetylase 3 (O15379 whole entry): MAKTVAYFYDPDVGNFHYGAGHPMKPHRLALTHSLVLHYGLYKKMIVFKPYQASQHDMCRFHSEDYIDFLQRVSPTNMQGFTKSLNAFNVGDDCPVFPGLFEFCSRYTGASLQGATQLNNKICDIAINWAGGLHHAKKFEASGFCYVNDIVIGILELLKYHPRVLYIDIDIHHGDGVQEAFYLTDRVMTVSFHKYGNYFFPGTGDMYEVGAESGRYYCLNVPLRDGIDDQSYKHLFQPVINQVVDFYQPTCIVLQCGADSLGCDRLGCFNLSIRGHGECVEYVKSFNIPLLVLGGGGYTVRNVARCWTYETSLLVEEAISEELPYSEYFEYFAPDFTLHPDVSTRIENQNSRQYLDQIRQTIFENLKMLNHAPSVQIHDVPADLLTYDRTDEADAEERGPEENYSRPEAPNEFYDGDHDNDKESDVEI

SMILES | pIC50 (Histone deacetylase 1) | GI50 (HCT-116 [1]) [µM] | Cmax [2] [µM] | AUC [3] [µM·h] | also measured
CCOP(=O)(OCC)c1ccc(C(=O)Nc2cc(-c3cccs3)ccc2N)cc1 | 7.66 | 0.41 |  |  | 
CCOP(C)(=O)c1ccc(C(=O)Nc2cc(-c3cccs3)ccc2N)cc1 (stereo not drawn) | 7.85 | 0.46 | 43 | 44 | 
CCOP(=O)(O)Cc1ccc(C(=O)Nc2cc(-c3cccs3)ccc2N)cc1 | 7.42 | > 20 |  |  | 
CCOP(=O)(c1ccccc1)c1ccc(C(=O)Nc2cc(-c3cccs3)ccc2N)cc1 (stereo not drawn) | 7.68 | 0.17 | 0.56 | 0.91 | 
COP(=O)(Cc1cccc(C(=O)Nc2cc(-c3cccs3)ccc2N)c1)c1ccccc1 (stereo not drawn) | 6.85 | 8.6 |  |  | 
CCOP(=O)(CNCc1ccc(C(=O)Nc2cc(-c3cccs3)ccc2N)cc1)OCC | 8.11 | 0.3 |  |  | pIC50 (Histone deacetylase 3): 4.92; pIC50 (Histone deacetylase 2): 7.85; Activity (Mus musculus [4]): Active; pIC50 (Histone deacetylase 4): < 4.30; pIC50 (Histone deacetylase 5): < 4.30; pIC50 [5]: < 4.30; pIC50 (Histone deacetylase 7): < 4.30; pIC50 (Histone deacetylase 8): 4.43; pIC50 (Histone deacetylase 11): < 4.30; Activity (HCT-116 [6]): Dose-dependent effect; Activity (Mus musculus [7]): Non-toxic
CCP(=O)(CC)Cc1cccc(C(=O)Nc2cc(-c3cccs3)ccc2N)c1 | 6.57 | > 20 |  |  | 

Now from value to molecule, other results behind:

pIC50 (Histone deacetylase 1) | GI50 (HCT-116 [1]) [µM] | Cmax [2] [µM] | AUC [3] [µM·h] | SMILES | also measured
8.05 | 0.2 | 14 | 17 | CCP(=O)(CC)Cc1ccc(C(=O)Nc2cc(-c3cccs3)ccc2N)cc1 | 
8.15 | 0.13 |  |  | CCP(=O)(Cc1ccc(C(=O)Nc2cc(-c3cccs3)ccc2N)cc1)OC (stereo not drawn) | 
8.19 | 0.24 | 17 | 17 | CCOP(=O)(CC)Cc1ccc(C(=O)Nc2cc(-c3cccs3)ccc2N)cc1 (stereo not drawn) | 
8.46 | 0.13 | 8.8 | 16 | CP(=O)(Cc1ccc(C(=O)Nc2cc(-c3cccs3)ccc2N)cc1)OCc1cccnc1 (stereo not drawn) | 
